In BindingDB's records for doi:10.1007/pl00005288 (King'S College London, 1998):

Key:
[1] = target: Melatonin receptor type 1A (Homo sapiens, UniProt P48039)
[2] = target: T1, Melatonin receptor type 1B (Homo sapiens, UniProt P49286)
T1 sequence (P49286 whole entry): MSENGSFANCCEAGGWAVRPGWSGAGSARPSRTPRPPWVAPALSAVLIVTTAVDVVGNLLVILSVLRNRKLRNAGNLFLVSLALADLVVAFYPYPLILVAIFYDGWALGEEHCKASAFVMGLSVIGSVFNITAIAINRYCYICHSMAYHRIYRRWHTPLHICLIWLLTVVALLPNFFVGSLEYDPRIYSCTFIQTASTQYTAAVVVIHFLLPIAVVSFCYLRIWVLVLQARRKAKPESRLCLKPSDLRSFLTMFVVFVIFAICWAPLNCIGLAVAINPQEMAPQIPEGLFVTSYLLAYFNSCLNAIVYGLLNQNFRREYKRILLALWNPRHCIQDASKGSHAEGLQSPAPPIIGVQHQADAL

[3] = target: T2, Melatonin receptor type 1B (Gallus gallus, UniProt P51050)
T2 sequence (P51050 whole entry): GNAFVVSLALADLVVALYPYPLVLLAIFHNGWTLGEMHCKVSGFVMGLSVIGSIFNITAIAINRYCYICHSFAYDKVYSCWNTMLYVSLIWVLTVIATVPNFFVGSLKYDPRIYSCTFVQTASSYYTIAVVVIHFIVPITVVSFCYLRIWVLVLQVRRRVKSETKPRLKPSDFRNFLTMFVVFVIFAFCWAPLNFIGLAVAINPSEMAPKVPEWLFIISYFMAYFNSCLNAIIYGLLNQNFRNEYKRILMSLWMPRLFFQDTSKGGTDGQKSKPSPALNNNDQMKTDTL

[4] = target: T3, Melatonin receptor type 1C (Xenopus laevis, UniProt P49219)
T3 sequence (P49219 whole entry): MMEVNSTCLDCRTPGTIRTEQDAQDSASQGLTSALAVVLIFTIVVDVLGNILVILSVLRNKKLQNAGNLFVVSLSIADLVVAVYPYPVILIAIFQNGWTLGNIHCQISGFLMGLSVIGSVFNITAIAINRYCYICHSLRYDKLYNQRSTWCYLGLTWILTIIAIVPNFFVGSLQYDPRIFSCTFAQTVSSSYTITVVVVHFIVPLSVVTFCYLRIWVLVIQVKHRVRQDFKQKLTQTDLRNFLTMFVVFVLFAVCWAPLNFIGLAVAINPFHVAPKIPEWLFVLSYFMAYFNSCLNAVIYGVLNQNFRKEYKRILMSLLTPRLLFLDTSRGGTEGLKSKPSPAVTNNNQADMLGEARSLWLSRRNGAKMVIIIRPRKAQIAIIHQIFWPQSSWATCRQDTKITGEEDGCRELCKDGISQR

Melatonin receptor type 1A, sequence (P48039 whole entry): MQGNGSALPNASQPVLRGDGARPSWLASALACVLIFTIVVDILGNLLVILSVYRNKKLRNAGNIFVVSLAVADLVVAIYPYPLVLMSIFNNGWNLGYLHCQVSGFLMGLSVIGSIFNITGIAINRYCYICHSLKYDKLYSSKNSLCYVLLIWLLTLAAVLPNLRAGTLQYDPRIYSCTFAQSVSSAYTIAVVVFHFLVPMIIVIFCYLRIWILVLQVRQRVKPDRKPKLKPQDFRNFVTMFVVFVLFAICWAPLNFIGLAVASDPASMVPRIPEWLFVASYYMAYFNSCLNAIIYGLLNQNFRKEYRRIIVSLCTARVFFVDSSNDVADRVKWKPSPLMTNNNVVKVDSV

Row | Structure (SMILES) | Ki [1] | Ki [2] | Ki [3] | Ki [4]
1 | CC(=O)NCCc1c(Cc2ccccc2)[nH]c2ccccc12 [CAS_117946-91-5] | 513 nM | 26.9 nM | 1740 nM | 2040 nM
2 | CCCCCC(=O)NCCc1c(Cc2ccccc2)[nH]c2ccc(OC)cc12 [Luzindole,5-MeOT-N-hexanyl] | 339 nM | 324 nM | 776 nM | 1380 nM
3 | CCCC(=O)NCCc1c(Cc2ccccc2)[nH]c2ccccc12 [Luzindole,N-butanoyl] | 3020 nM | 1320 nM | > 10000 nM | 3800 nM
4 | CCCCCC(=O)NCCc1c(Cc2ccccc2)[nH]c2ccccc12 [Luzindole,N-hexanoyl] | 5500 nM | 7080 nM | 6460 nM | 5750 nM
5 | CCCCC(=O)NCCc1c(Cc2ccccc2)[nH]c2ccccc12 [Luzindole,N-pentanoyl] | 832 nM | 9.33 nM | 933 nM | 2140 nM
6 | CCC(=O)NCCc1c(Cc2ccccc2)[nH]c2ccccc12 [Luzindole,N-propanoyl] | 776 nM | 22.9 nM | 1950 nM | 3160 nM
